Counter-ions that a name gives are not always drawn. Like-named read-outs stand apart in the source and are kept apart here. Marks after values point to notes of the source that are not given here. Blank lines part the entries; values can stand above or below the compound they belong to.
What was measured:
[1] = system: isolated CE-1 enzyme from porcine liver; assay: CE-1 activity on short chain esters, 1H NMR; type: biochemical; details: for k: 26 μmol substrate, conversion over 60 min; for faster converted than ethyl acetate: vs ethyl acetate
Source text: To measure almost exclusively the contribution of carboxyl esterase activity from the CE-2 isoform, human breast cancer cells (MCF-7) were employed. These cells are known from literature to express CE-2 but not to express CE-1 (Byun et al, 2008, Cancer letters 266:238-48). A group of esters was investigated as substrates for CE-1, which contained different structural features. These consisted of esters of un-substituted acids (examples are ethyl acetate, ethyl butyrate, methyl butyrate), esters of acids substituted on C2 (examples are ethyl lactate and ethyl 2-acetoxy propanoate), esters of acids substituted on C3 (examples are ethyl 3-hydroxy butyrate and ethyl 3-acetoxy butanoate), esters of ring closed acids (example ethyl pyroglutamate), esters of di-acids (examples are diethyl succinate and dimethyl succinate), esters of tri-acids (example triethyl citrate), ethyl esters of beta-keto acids (example ethyl acetoacetate). Also esters with large alcohol groups and small acid groups were investigated. In this group, the acid part of the molecule was always acetate and different structural properties of the alcohol were investigated. These consisted of esters of un-substituted alcohols (examples ethyl acetate and butyl acetate), esters of branched chain alcohols (examples t-butyl acetate, ethyl 3-acetoxy butanoate and 2-acetoxy propionate), esters of aromatic alcohols (example benzyl acetate), esters of diols (example ethyleneglycol diacetate), esters of triols (example triacetin). […] Similarly, a group of esters which contained different structural features was investigated as substrates for CE-2. CE-2 substrates are described in the literature to consist of a small acid group and a larger alcohol group. All included esters were acetate esters (i.e. esters of acetic acid) in the interest of keeping the acid moiety the smallest possible. The acetate esters measured for CE-2 activity were therefore the same as those measured in the second group of possible substrates for CE-1.
The CE-1 experiments were performed with commercially available CE-1 from porcine liver. Individual samples of the substrates were all prepared the following way: 26 μmol was weighted in an eppendorf tube. 550 μl deuterated phosphate buffer (200 mM, pH 7.5) was added and the substrate was brought into solution by whirl mixing. The solution was transferred to a 5 mm NMR tube and inserted in the spectrometer at 37° C. A reference experiment was acquired on the substrate solution without enzyme after which 10 μl of an esterase stock solution (37 U/ml in deuterated phosphate buffer) was added in the top of the tube. The sample was mixed and returned to the spectrometer. A series of thermal 1D ^1H NMR experiments were recorded every 5 min for 60 min. The data were analysed with MNOVA software and measured as percentage conversion of substrate calculated to account for the amount of substrate converted over 60 min. The numbers are given in μmol/min.

[2] = biological target: T1, CE-2 in lysed human breast cancer cells (MCF-7) (Homo sapiens, UniProt O00748); assay: CE-2 activity on acetate esters in lysed MCF-7 cells, 1H NMR; type: biochemical; details: for k: 5 million lysed MCF-7 cells, 37° C., 1 hour; for hydrolysis by CE-2, in words: lysed MCF-7 cells
T1 construct: endogenous in cells; host or cells: MCF-7 (sonicated lysate)
T1 sequence (O00748 27-559): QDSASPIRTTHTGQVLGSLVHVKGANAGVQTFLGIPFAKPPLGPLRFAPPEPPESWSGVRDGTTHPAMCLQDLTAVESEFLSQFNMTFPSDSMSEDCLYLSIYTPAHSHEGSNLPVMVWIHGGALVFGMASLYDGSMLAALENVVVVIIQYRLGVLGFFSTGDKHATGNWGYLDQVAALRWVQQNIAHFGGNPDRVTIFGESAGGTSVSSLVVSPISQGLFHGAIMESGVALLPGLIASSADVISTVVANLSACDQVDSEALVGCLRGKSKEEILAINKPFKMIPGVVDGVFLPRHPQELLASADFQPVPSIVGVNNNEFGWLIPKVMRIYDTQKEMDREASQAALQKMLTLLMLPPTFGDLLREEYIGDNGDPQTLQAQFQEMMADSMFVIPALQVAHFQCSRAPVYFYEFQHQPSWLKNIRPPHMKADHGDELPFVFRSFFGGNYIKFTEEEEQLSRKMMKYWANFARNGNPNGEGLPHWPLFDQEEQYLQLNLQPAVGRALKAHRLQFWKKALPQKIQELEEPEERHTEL
Description: Different classes of short chain esters, fulfilling the requirements for the hyperpolarization technique (stable, soluble, low molecular weight compounds (<400 Da), were evaluated as substrates for carboxyl esterases with the aim to identify esters as similar or better substrates for carboxyl esterases than 1,3-^13C2 ethyl acetoacetate. In most human cell types, including a wide range of cancer cells and lymphocytes, the activity of carboxyl esterase is dominated by the activities of isoforms 1 and 2 (CE-1 and CE-2). To measure exclusively the hydrolysis of carboxyl esterase from the CE-1 isoform, an isolated enzyme from porcine liver was applied. To measure almost exclusively the contribution of carboxyl esterase activity from the CE-2 isoform, human breast cancer cells (MCF-7) were employed. These cells are known from literature to express CE-2 but not to express CE-1 (Byun et al, 2008, Cancer letters 266:238-48). A group of esters was investigated as substrates for CE-1, which contained different structural features. […] Also esters with large alcohol groups and small acid groups were investigated. In this group, the acid part of the molecule was always acetate and different structural properties of the alcohol were investigated. These consisted of esters of un-substituted alcohols (examples ethyl acetate and butyl acetate), esters of branched chain alcohols (examples t-butyl acetate, ethyl 3-acetoxy butanoate and 2-acetoxy propionate), esters of aromatic alcohols (example benzyl acetate), esters of diols (example ethyleneglycol diacetate), esters of triols (example triacetin). Esters of alpha-keto acids were too unstable to be investigated in this assay. Esters of larger alcohols are not water soluble and therefore not relevant substrates for the purpose of the invention. Similarly, a group of esters which contained different structural features was investigated as substrates for CE-2. CE-2 substrates are described in the literature to consist of a small acid group and a larger alcohol group. All included esters were acetate esters (i.e. esters of acetic acid) in the interest of keeping the acid moiety the smallest possible. The acetate esters measured for CE-2 activity were therefore the same as those measured in the second group of possible substrates for CE-1. The CE-2 experiments were performed with lysed breast cancer cells (MCF-7). MCF-7 cells were grown in RPMI medium with 10% FBS and antibiotics. They were at confluence harvested by trypsination and washed once with 5 ml PBS. They were spun down and resuspended in PBS to a concentration of 20 mill. cells/ml. The cells were hereafter sonicated on ice (50% amplitude, 1 min, 3 sec pulse). 250 μl sonicated cell suspension was mixed with 250 μl 400 mM phosphate buffer pH 7.3. […] The substrate was added (50 μl, 60 mM) and the tube turned for mixing before it was inserted into the spectrometer. An initial spectrum was acquired and the sample was hereafter placed at 37° C. for 1 hour in a water bath. The sample was again inserted into the magnet and a second spectrum was recorded. The data was analysed with MNOVA software and measured as percentage conversion of substrate calculated to account for the amount of substrate converted over 60 min. The numbers are given in μmol/hour.

[3] = system: carboxyl esterase in lysed breast cancer cells (MCF-7); assay: Carboxyl esterase activity in cell extract, 1H NMR; type: biochemical, human; details: for Metabolic conversion, Breast cancer cells MCF-7: 5 million lysed cells, 37° C.
Description: (§1) The hydrolysis of the substrates was investigated in cell extracts. To test substrates without isotope labelling for carboxyl esterase activity in a cellular background, a ^1H NMR assay was applied. Human breast cancer cells (MCF-7) and human prostate cancer cells (PC-3) were grown in RPMI medium with 10% FBS and antibiotics. They were at confluence harvested by trypsination and washed once with 5 ml PBS. They were spun down and resuspended in PBS to a concentration of 20 mill. cells/ml. The cells were hereafter sonicated on ice (50% amplitude, 1 min, 3 sec pulse). Human lymphocytes were purified from whole blood. Whole blood samples were drawn from healthy volunteer into heparinised venous blood collection tubes (Venosafe vacumtubes from Terumo). For each experiment, the blood was purified freshly: Three and a half 10 mL tubes of blood were pooled in each of four 50 mL Leucosep (Greiner) tubes prepared with 15 mL Histopaque 1077 (Sigma). The Leucosep tubes were spun for 15 min at 800× g at 24 C. The plasma was removed and the white blood cells were transferred to a 50 mL falcon tube by decanting and diluted 1:2 in PBS-Mg—Ca for a total volume of 50 mL. The cells were sedimented by centrifugation at 250×g for 60 min. Diluting with trypan blue and counting in hemocytometer determined the total number of lymphocytes before sedimentation. All cells were viable and the total number of cells in each cell batch was approx. 60 million. The lymphocytes were redissolved to a concentration of 20 million cells/ml. The cells were hereafter sonicated on ice (50% amplitude, 1 min, 3 sec pulse).
(§2) 250 μl sonicated cell suspension was mixed with 250 μl 400 mM phosphate buffer pH 7.3. This solution was transferred to a 5 mm NMR tube and warmed on a water bath to 37° C. The substrate was added (50 μl, 60 mM) and the tube turned for mixing before it was inserted into the spectrometer. The data was analyzed with MNOVA software and measured as percentage conversion of substrate calculated to account for the amount of substrate converted over 60 min; numbers are given in μmol/hour.

[4] = system: carboxyl esterase in lysed lymphocytes (B + T cells); assay: Carboxyl esterase activity in cell extract, 1H NMR; type: biochemical, human; details: 5 million lysed cells, 37° C.
Description: as §1, §2

[5] = system: carboxyl esterase in lysed prostate cancer cells (PC-3); assay: Carboxyl esterase activity in cell extract, 1H NMR; type: biochemical, human; details: for Metabolic conversion, Prostate cancer cells PC-3: 5 million lysed cells, 37° C.
Description: as §1, §2

SMILES: CCCCOC(C)=O [Butyl acetate]
- k ([1]; 37° C.): 0.04 µmol/min
- k [2]: 0.24 µmol/min
- hydrolysis by CE-2, in words [2]: hydrolysed to a similar extent

SMILES: CCOC(=O)C(C)O (stereo not shown) [Ethyl lactate]
- k ([1]; 37° C.): 0.11 µmol/min

SMILES: CCOC(=O)[C@@H]1CCC(=O)N1 [Ethyl pyroglutamate]
- conversion by CE-1, in words [1]: only hydrolyzed to a very low extent
- k ([1]; 37° C.): 0.02 µmol/min
- conversion by CE-1, in words ([1]; listed as ethyl ester of pyroglutamate): barely detectable

SMILES: CCOC(C)=O [Ethylacetate]
- conversion by CE-1, in words [1]: not a good substrate
- k ([1]; 37° C.): 0.03 µmol/min
- k [2]: 0 µmol/min
- hydrolysis by CE-2, in words [2]: not hydrolysed

SMILES: CCCC(=O)OC [Methylbutyrate]
- k ([1]; 37° C.): 0.22 µmol/min
- Metabolic conversion, Breast cancer cells MCF-7 [3]: 0.42 µmol/h
- Metabolic conversion, Lymphocytes (B + T cells) [4]: 0.90 µmol/h
- Metabolic conversion, Prostate cancer cells PC-3 [5]: 0.51 µmol/h

SMILES: CC(=O)OC(C)(C)C [Tert-butyl acetate]
- k ([1]; 37° C.): 0 µmol/min

SMILES: CCOC(=O)CC(O)(CC(=O)OCC)C(=O)OCC [Triethyl citrate]
- conversion by CE-1, in words [1]: only hydrolyzed to a very low extent
- k ([1]; 37° C.): 0 µmol/min
- conversion by CE-1, in words ([1]; listed as triethyl citrate): no hydrolysis could be detected

SMILES: CCOC(=O)C(C)OC(C)=O (stereo not shown) [ethyl 2-acetoxy propanoate]
- k (μmol/min), acetate ester ([1]; hydrolysis of the acetate ester function, 37° C., 60 min): 0 µmol/min
- k (μmol/min), ethyl ester ([1]; hydrolysis of the ethyl ester function, 37° C., 60 min): 0.16 µmol/min
- hydrolysis by CE-2, in words [2]: hydrolysed to a similar extent

The next lines start with results.

- k ([1]; 37° C.): 0.48 µmol/min
- faster converted than ethyl acetate [1]: more than ten times faster converted
SMILES: CCOC(=O)CCC(=O)OCC [Diethyl succinate]
- Metabolic conversion, Breast cancer cells MCF-7 [3]: 0.12 µmol/h
- negative contrast, lower than that of EAA ([3]; breast cancer cells relative to lymphocytes, cell number basis): approx. 3 times
- Metabolic conversion, Lymphocytes (B + T cells) [4]: 0.60 µmol/h
- Metabolic conversion, Prostate cancer cells PC-3 [5]: 0.48 µmol/h

- k ([1]; 37° C.): 0.41 µmol/min
- faster converted than ethyl acetate [1]: more than ten times faster converted
SMILES: COC(=O)CCC(=O)OC [Dimethyl succinate]

- k ([1]; 37° C.): 0.08 µmol/min
SMILES: CCOC(=O)CC(C)O (stereo not shown) [Ethyl 3-Hydroxybutyrate]

- k ([1]; 37° C.): 0.12 µmol/min
SMILES: CCOC(=O)CC(C)=O [Ethyl acetoacetate]
- Metabolic conversion, Breast cancer cells MCF-7 [3]: 0* umol/hour
- contrast in breast cancer cells relative to lymphocytes, in words ([3]; cell number basis, FIG. 9A): highest contrast
- Metabolic conversion, Lymphocytes (B + T cells) [4]: 0.15 µmol/h
- Metabolic conversion, Prostate cancer cells PC-3 [5]: 0* umol/hour
- contrast in prostate cancer cells relative to lymphocytes, in words ([5]; cell number basis, FIG. 9B): highest negative contrast

- k ([1]; 37° C.): 0.12 µmol/min
SMILES: CCCC(=O)OCC [Ethylbutyrate]

- k ([1]; 37° C.): 0.07 µmol/min
- k [2]: 0.18 µmol/min
SMILES: CC(=O)OCCOC(C)=O [Ethyleneglycol diacetate]
